Among the data in PubChem BioAssay AID192 (DTP/NCI, 2004) are T/C values, retold here.

The subject of this test is BDF1 mice, B16 melanoma ip, median survival T/C. Nature of the test: NCI In Vivo Anticancer Drug Screen. Data for tumor model B16 Melanoma (intraperitoneal) in B6D2F1 (BDF1) mice. The settings on record: endpoint: median survival time, higher = longer survival. An outline of the steps:
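Values are ratios of treated (T) to vehicle-control (C) measurements of survival or tumor size in tumor-bearing mice.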

Setting [1] is: dose: 50.0 mg/kg/injection, schedule: Q01DX009 (ip), vehicle: Klucel (hydroxypropylcellulose) (HPC).
[2] abbreviates: dose: 100.0 mg/kg/injection, schedule: Q01DX009 (ip), vehicle: Klucel (hydroxypropylcellulose) (HPC).
Where [3] appears, read: dose: 3.12 mg/kg/injection, schedule: Q01DX009 (ip), vehicle: Klucel (hydroxypropylcellulose) (HPC).
Setting [4] is: dose: 6.25 mg/kg/injection, schedule: Q01DX009 (ip), vehicle: Klucel (hydroxypropylcellulose) (HPC).
[5] abbreviates: dose: 12.5 mg/kg/injection, schedule: Q01DX009 (ip), vehicle: Klucel (hydroxypropylcellulose) (HPC).
Where [6] appears, read: dose: 25.0 mg/kg/injection, schedule: Q01DX009 (ip), vehicle: Klucel (hydroxypropylcellulose) (HPC).

Structures are written as SMILES. Several values for one entry are separate records, joined by “and”; a condition that tells them apart may be missing. Equal values may be shown once. Inconclusive results and toxic doses are left out.

On to `CCC1CCCCC1=O` (centres undefined), for which the T/C is, setting by setting: (dose: 44.0 mg/kg/injection, schedule: Q01DX009 (ip), vehicle: saline with Tween-80) 97 % of control; (dose: 67.0 mg/kg/injection, schedule: Q01DX009 (ip), vehicle: saline with Tween-80) 95 % of control; (dose: 100.0 mg/kg/injection, schedule: Q01DX009 (ip), vehicle: saline with Tween-80) 100 % of control; (dose: 150.0 mg/kg/injection, schedule: Q01DX009 (ip), vehicle: saline with Tween-80) 102 % of control.
Turning to `C=CCCCCCCCCC(=O)N(CCOC)CCOC`, the T/C (dose: 25.0 mg/kg/injection, schedule: Q01DX009 (ip), vehicle: saline with Tween-80) is 115 % of control; the T/C (dose: 25.0 mg/kg/injection, schedule: Q04DX003 (ip), vehicle: saline with Tween-80) was 97 % of control; the T/C (dose: 50.0 mg/kg/injection, schedule: Q01DX009 (ip), vehicle: saline with Tween-80) was 102 % of control; the T/C (dose: 50.0 mg/kg/injection, schedule: Q04DX003 (ip), vehicle: saline with Tween-80) is 91 % of control; the T/C (dose: 100.0 mg/kg/injection, schedule: Q04DX003 (ip), vehicle: saline with Tween-80) is 89 % of control.
For the compound `O=[N+]([O-])c1cccc2ncccc12`, the T/C is 100 % of control (dose: 50.0 mg/kg/injection, schedule: Q04DX003 (ip), vehicle: Klucel (hydroxypropylcellulose) (HPC)); 97 % of control (dose: 100.0 mg/kg/injection, schedule: Q04DX003 (ip), vehicle: Klucel (hydroxypropylcellulose) (HPC)); 91 % of control (dose: 200.0 mg/kg/injection, schedule: Q04DX003 (ip), vehicle: Klucel (hydroxypropylcellulose) (HPC)).
For the compound `O=C(O)c1ccccc1C(=O)Nc1ccc([N+](=O)[O-])cc1Cl`, the T/C is, setting by setting: under setting [1], 93 % of control; under setting [2], 100 % of control; (dose: 200.0 mg/kg/injection, schedule: Q01DX009 (ip), vehicle: Klucel (hydroxypropylcellulose) (HPC)) 96 % of control.
As to `Nc1nc(SCc2ccccc2)c2[nH]cnc2n1`, the T/C is, setting by setting: (dose: 3.13 mg/kg/injection, schedule: Q01DX009 (ip), vehicle: saline sonified) 95 % of control; (dose: 6.25 mg/kg/injection, schedule: Q01DX009 (ip), vehicle: saline sonified) 100 % of control; (dose: 12.5 mg/kg/injection, schedule: Q01DX009 (ip), vehicle: saline sonified) 93 % of control; (dose: 25.0 mg/kg/injection, schedule: Q01DX009 (ip), vehicle: saline sonified) 97 % of control.
Consider `CCCC(=O)OCc1cc(=O)n(C)c2c3c4c(cc12)c(C)cc(=O)n4CO3`, for which the T/C under setting [3] was 106 % of control; the T/C under setting [4] was 101 % of control and 110 % of control; the T/C under setting [5] was 120 % of control; the T/C under setting [1] was 153 % of control.
Consider `C=CCNc1ccc(C)cc1`, for which the T/C is, setting by setting: under setting [5], 105 % of control; under setting [6], 96 % of control; under setting [1], 88 % of control; under setting [2], 91 % of control.
With `Cc1cc(NC(=O)CCc2ccc(N3C(N)=NC(N)=NC3(C)C)cc2)ccc1S(=O)(=O)F`, the T/C is 118 % of control (dose: 50.0 mg/kg/injection, schedule: Q01DX009 (ip), vehicle: saline sonified); 94 % of control (dose: 100.0 mg/kg/injection, schedule: Q01DX009 (ip), vehicle: saline sonified); 100 % of control (dose: 200.0 mg/kg/injection, schedule: Q01DX009 (ip), vehicle: saline sonified).
With `O=NNc1cnccn1`, the T/C (dose: 25.0 mg/kg/injection, schedule: Q01DX009 (ip), vehicle: water) was 164 % of control.
Consider `N#Cc1ccc(C(=O)C=C(C(F)(F)F)C(F)(F)F)cc1`, for which the T/C is 99 % of control (dose: 1.56 mg/kg/injection, schedule: Q01DX009 (ip), vehicle: saline with Tween-80); 100 % of control (dose: 3.12 mg/kg/injection, schedule: Q01DX009 (ip), vehicle: saline with Tween-80); 99 % of control (dose: 6.25 mg/kg/injection, schedule: Q01DX009 (ip), vehicle: saline with Tween-80); 93 % of control (dose: 12.5 mg/kg/injection, schedule: Q01DX009 (ip), vehicle: saline with Tween-80).
On to `OCCOCCOCCN1CCN(C(c2ccccc2)c2ccc(Cl)cc2)CC1` (centres undefined), for which the T/C (dose: 12.5 mg/kg/injection, schedule: Q01DX009 (ip), vehicle: saline) was 108 % of control; the T/C (dose: 25.0 mg/kg/injection, schedule: Q01DX009 (ip), vehicle: saline) is 110 % of control; the T/C (dose: 50.0 mg/kg/injection, schedule: Q01DX009 (ip), vehicle: saline) is 86 % of control; the T/C (dose: 100.0 mg/kg/injection, schedule: Q01DX009 (ip), vehicle: saline) is 86 % of control.
`O=C1NC(c2ccccc2)(c2ccccc2)C(=O)N1SC(Cl)(Cl)Cl`: the T/C is, setting by setting: under setting [3], 106 % of control; under setting [4], 92 % of control; under setting [5], 103 % of control; under setting [6], 97 % of control; under setting [1], 91 % of control.
